{
  "source": "patent US5158942A",
  "about": "“Process of using phospholipid derivatives to inhibit multiplication of the human immunodeficiency virus” (Boehringer Mannheim GmbH, priority 1989, dated 1992)",
  "data": [
    {"tested_on": "HIV", "experiment": "Inhibition of HIV replication in HIV infected human T-lymphoma cells or human fetal lung cells; amount of virus determined by new infection of human fetal lung cells", "assay_type": "cell-based", "conditions": "Human immunodeficiency virus 1, readout: new infection of human fetal lung cells, read-out: IC50-value (concentration which results in an inhibition of the replication of 50%)", "procedure": "HIV infected human T-lymphoma cells or human fetal lung cells were treated with the inventive compound by using different concentration ranges of the test compound. The amount of the viruses was then determined by way of new infection of human fetal lung cells. The decrease of the resulting positive HIV-infected cells was regarded as a measure for the antiviral activity of the compound tested.\nThe following table gives the corresponding concentration, which results in an inhibition of the replication of 50% (IC50 -value): […]", "units": {"IC50": "µg/mL"}, "values": [
      {"smiles": "CCCCCCCCCCCCC[S+]([O-])CC(COP(=O)([O-])OCC[N+](C)(C)C)OCCCCCCCCCC", "note": "(stereo not shown) [Example 25, 3-Tridecylsulphinyl-2-decyloxypropyl-1-phosphoric acid monocholine ester]", "IC50": 2},
      {"smiles": "CCCCCCCCCCCCCCSCC(COP(=O)([O-])OCC[N+](C)(C)C)OCCCCCCCCCC", "note": "(stereo not shown) [Example 13, 3-Tetradecylmercapto-2-decyloxypropyl-1-phosphoric acid monocholine ester]", "IC50": 4},
      {"smiles": "CCCCCCCCCCCCS(=O)(=O)CC(COP(=O)([O-])OCC[N+](C)(C)C)OCCCCCCCCCC", "note": "(stereo not shown) [Example 8, 3-Dodecylsulphonyl-2-decyloxypropyl-1-phosphoric acid monocholine ester]", "IC50": 2},
      {"smiles": "CCCCCCCCCCCCCCCCOC(COP(=O)([O-])OCC[N+](C)(C)C)CSCCCCCCCCCC", "note": "(stereo not shown) [Example 6, 3-Decylmercapto-2-hexadecyloxypropyl-1-phosphoric acid monocholine ester]", "IC50": 50},
      {"smiles": "CCCCCCCCCCCOC(COP(=O)([O-])OCC[N+](C)(C)C)C[S+]([O-])CCCCCCCCCCC", "note": "(stereo not shown) [Example 24, 3-Undecylsulphinyl-2-undecyloxypropyl-1-phosphoric acid monocholine ester]", "IC50": 4},
      {"smiles": "CCCCCCCCCCCCOC(COP(=O)([O-])OCC[N+](C)(C)C)CSCCCCCCCCCCCC", "note": "(stereo not shown) [Example 4, 3-Dodecylmercapto-2-dodecyloxypropyl-1-phosphoric acid monocholine ester]", "IC50": 4},
      {"smiles": "CCCCCCCCCCCCOC(COP(=O)([O-])OCC[N+](C)(C)C)CS(=O)(=O)CCCCCCCCCC", "note": "(stereo not shown) [Example 9, 3-Decylsulphonyl-2-dodecyloxypropyl-1-phosphoric acid monocholine ester]", "IC50": 2},
      {"smiles": "CCCCCCCCCCCCCCCCSCC(COP(=O)([O-])OCC[N+](C)(C)C)OCCCCCCCCCC", "note": "(stereo not shown) [Example 5, 3-Hexadecylmercapto-2-decyloxypropyl-1-phosphoric acid monocholine ester]", "IC50": 20},
      {"smiles": "CCCCCCCCCCCCSCC(COP(=O)([O-])OCC[N+](C)(C)C)NC(=O)CCCCCCCCCC", "note": "(stereo not shown) [Example 21, 3-Dodecylmercapto-2-decylcarbonylaminopropyl-1-phosphoric acid monocholine ester]", "IC50": 5},
      {"smiles": "CCCCCCCCCCCC[S+]([O-])CC(COP(=O)([O-])OCC[N+](C)(C)C)OCCCCCCCCCC", "note": "(stereo not shown) [Example 22, 3-Dodecylsulphinyl-2-decyloxypropyl-1-phosphoric acid monocholine ester]", "IC50": 4},
      {"smiles": "CCCCCCCCCCCSCC(COP(=O)([O-])OCC[N+](C)(C)C)OCCCCCCCCCC", "note": "(stereo not shown) [Example 11, 3-Undecylmercapto-2-decyloxypropyl-1-phosphoric acid monocholine ester]", "IC50": 20},
      {"smiles": "CCCCCCCCCCCCSCC(CSCCCCCCCCCCCC)OP(=O)([O-])OCC[N+](C)(C)C", "note": "[Example 20, 1,3-Bis-(dodecylmercapto)-propyl-1-phosphoric acid monocholine ester]", "IC50": 4}
    ]},
    {"tested_on": "not given", "experiment": "not given", "conditions": "M. S. Hirsch, J. Infect. Dis., 157, 427-431/1988; cited from earlier work", "values": [
      {"smiles": "Cc1cn([C@H]2C[C@H](N=[N+]=[N-])[C@@H](CO)O2)c(=O)[nH]c1=O", "note": "[AZT, 3'-azido-3'deoxythymidine]", "toxicities in the therapeutic range": "very severe toxicities occurring even in the therapeutic range"}
    ]}
  ]
}
